Test results: US20250120927A1, “CNDP2 MODULATORS AND METHODS FOR THEIR USE” (Metabolon Inc., priority 2023, published 2025)
pIC50: −log10 of the molar value.

Target: CNDP2 (Homo sapiens (Human), UniProt Q96KP4)
Assay: CNDP2 enzyme inhibition assay (Met-His hydrolysis, free histidine by o-phthaldialdehyde fluorescence), dose-response
Format: biochemical
Details: 50 nM purified CNDP2 (Sino Biological), 1 mM Met-His substrate, 30 minutes at 37° C.; TABLE 1
Experimental: To identify optimal conditions for identifying novel inhibitors of CNDP2, enzyme assays were performed with varied sources of purified enzyme, concentrations of enzyme, peptide substrates, concentrations of peptide substrates and metal cofactors. […] The reaction mixture was incubated for 30 minutes at 37° C. before it was quenched with an equal volume of 1% TCA. Free histidine was quantified after derivatization with a fluorophore (o-phthaldialdehyde from Sigma-Aldrich, excitation 340 nm, emission 460 nm). The reaction was conducted in an automation-friendly format to meet future screening throughput demands. A histidine titration standard curve was also included to enable conversion of fluorescence signal to molar concentration of histidine released by the hydrolysis reaction and to ensure the linearity of the fluorescence signal vs. free histidine.
Compounds of Formula (I) disclosed herein were screened for potency in inhibiting CNDP2 enzyme activity in a dose-response experiment. Bestatin was included with each batch of test molecules as a benchmark for assay quality control.

Chain of CNDP2 (Q96KP4 whole entry): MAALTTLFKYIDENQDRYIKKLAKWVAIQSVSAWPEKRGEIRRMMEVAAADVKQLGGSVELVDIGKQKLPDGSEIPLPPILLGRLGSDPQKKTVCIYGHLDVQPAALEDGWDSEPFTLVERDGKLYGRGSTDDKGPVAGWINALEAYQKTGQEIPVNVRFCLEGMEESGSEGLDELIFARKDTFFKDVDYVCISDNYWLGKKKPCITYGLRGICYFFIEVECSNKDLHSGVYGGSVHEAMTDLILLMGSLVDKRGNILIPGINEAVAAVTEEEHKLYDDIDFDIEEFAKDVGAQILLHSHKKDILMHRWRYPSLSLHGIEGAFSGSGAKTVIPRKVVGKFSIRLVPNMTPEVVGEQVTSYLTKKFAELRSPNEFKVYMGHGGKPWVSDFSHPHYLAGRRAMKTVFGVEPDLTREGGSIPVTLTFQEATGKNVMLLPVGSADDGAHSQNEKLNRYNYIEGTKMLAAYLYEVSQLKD

`N[C@H](Cc1ccccc1)[C@H](O)C(=O)N[C@@H](Cc1ccc(F)cc1)C(=O)O` [Compound 1, (S)-2-((2S,3R)-3-amino-2-hydroxy-4-phenylbutanamido)-3-(4-fluorophenyl)propanoic acid] and `N[C@H](Cc1ccccc1)[C@H](O)C(=O)N[C@@H](Cc1ccc(O)cc1)C(=O)O` [Compound 19, 2-[[(2S,3R)-3-amino-2-hydroxy-4-phenyl-butanoyl]amino]-3-(4-hydroxyphenyl)propanoic acid] cannot be ordered by pIC50: at most 6.00 for the first, at most 6.00 for the second.

`N[C@H](Cc1ccccc1)[C@H](O)C(=O)NC(C(=O)O)c1ccccc1` (stereo partly drawn) [Compound 3, 2-[[(2S,3R)-3-amino-2-hydroxy-4-phenyl-butanoyl]amino]-2-phenyl-acetic acid] and `CC(c1ccccc1)[C@H](NC(=O)[C@@H](O)[C@H](N)Cc1ccccc1)C(=O)O` (stereo partly drawn) [Compound 14, 2-[[(2S,3R)-3-amino-2-hydroxy-4-phenyl-butanoyl]amino]-3-phenyl-butanoic acid] cannot be ordered by pIC50: at most 6.00 for the first, at most 6.00 for the second.

`N[C@H](Cc1ccccc1)[C@H](O)C(=O)N[C@H](C(=O)O)C1CCCC1` [Compound 4, (2S)-2-[[(2S,3R)-3-amino-2-hydroxy-4-phenyl-butanoyl]amino]-2-cyclopentyl-acetic acid] and `N[C@H](Cc1ccccc1)[C@H](O)C(=O)N[C@H](C(=O)O)C1CCCCC1` [Compound 5, (2S)-2-[[(2S,3R)-3-amino-2-hydroxy-4-phenyl-butanoyl]amino]-2-cyclohexyl-acetic acid] fall in the same range of pIC50: 6.00 to 7.00 for the first, 6.00 to 7.00 for the second.

`COc1ccccc1[C@H](NC(=O)[C@@H](O)[C@H](N)Cc1ccccc1)C(=O)O` [Compound 8, (2S)-2-[[(2S,3R)-3-amino-2-hydroxy-4-phenyl-butanoyl]amino]-2-(2-methoxyphenyl)acetic acid] and `N[C@H](Cc1ccccc1)[C@H](O)C(=O)NC(C(=O)O)c1ccccc1C(F)(F)F` (some centres unmarked) [Compound 27] cannot be ordered by pIC50: at most 6.00 for the first, at most 6.00 for the second.

`N[C@H](Cc1ccccc1)[C@H](O)C(=O)N[C@H](C(=O)O)c1cccnc1` [Compound 9, (2S)-2-[[(2S,3R)-3-amino-2-hydroxy-4-phenyl-butanoyl]amino]-2-(3-pyridyl)acetic acid] and `COc1cccc(C(NC(=O)[C@@H](O)[C@H](N)Cc2ccccc2)C(=O)O)c1` (some centres unmarked) [Compound 32] cannot be ordered by pIC50: at most 6.00 for the first, at most 6.00 for the second.

First: N[C@H](Cc1ccccc1)[C@H](O)C(=O)NC(C(=O)O)c1cccc(C(F)(F)F)c1 (stereo partly drawn) [Compound 10, 2-[[(2S,3R)-3-amino-2-hydroxy-4-phenyl-butanoyl]amino]-2-[3-(trifluoromethyl)phenyl]acetic acid]
Second: N[C@H](Cc1ccccc1)[C@H](O)C(=O)N[C@@H](C(=O)O)c1cccc(C(F)(F)F)c1 [Compound 35]
The pIC50 of the first is higher: over 7.00 for the first, at most 6.00 for the second. The first is the more potent here.

`N[C@H](Cc1ccccc1)[C@H](O)C(=O)N[C@@H](Cc1ccccc1C(F)(F)F)C(=O)O` [Compound 11, 2-[[(2S,3R)-3-amino-2-hydroxy-4-phenyl-butanoyl]amino]-3-[2-(trifluoromethyl)phenyl]propanoic acid] and `N[C@H](Cc1ccccc1)[C@H](O)C(=O)N[C@@H](Cc1ccccc1Br)C(=O)O` [Compound 26, 2-[[(2S,3R)-3-amino-2-hydroxy-4-phenyl-butanoyl]amino]-3-(2-bromophenyl)propanoic acid] cannot be ordered by pIC50: at most 6.00 for the first, at most 6.00 for the second.

`N[C@H](Cc1ccccc1)[C@H](O)C(=O)NC1(C(=O)O)CCCC1` [Compound 15, 1-[[(2S,3R)-3-amino-2-hydroxy-4-phenyl-butanoyl]amino]cyclopentane carboxylic acid] and `N[C@H](Cc1ccccc1)[C@H](O)C(=O)N[C@H](C(=O)O)C1CCC1` [Compound 20, (2S)-2-[[(2S,3R)-3-amino-2-hydroxy-4-phenyl-butanoyl]amino]-2-cyclobutyl-acetic acid] cannot be ordered by pIC50: at most 6.00 for the first, at most 6.00 for the second.

First: N[C@H](Cc1ccccc1)[C@H](O)C(=O)NC(Cc1ccc(C(F)(F)F)cc1)C(=O)O (stereo partly drawn) [Compound 16, 2-[[(2S,3R)-3-amino-2-hydroxy-4-phenyl-butanoyl]amino]-3-[4-(trifluoromethyl)phenyl]propanoic acid]
Second: N[C@H](Cc1ccccc1)[C@H](O)C(=O)N[C@@H](Cc1ccc(Br)cc1)C(=O)O [Compound 25, 2-[[(2S,3R)-3-amino-2-hydroxy-4-phenyl-butanoyl]amino]-3-(4-bromophenyl)propanoic acid]
The pIC50 of the first is lower: 6.00 to 7.00 for the first, over 7.00 for the second.

`N[C@H](Cc1ccccc1)[C@H](O)C(=O)NC(CC1CCCC1)C(=O)O` (stereo partly drawn) [Compound 17, 2-[[(2S,3R)-3-amino-2-hydroxy-4-phenyl-butanoyl]amino]-3-cyclopentyl-propanoic acid] and `N[C@H](Cc1ccccc1)[C@H](O)C(=O)NC(CC1CCOCC1)C(=O)O` (stereo partly drawn) [Compound 23, 2-[[(2S,3R)-3-amino-2-hydroxy-4-phenyl-butanoyl]amino]-3-tetrahydropyran-4-yl-propanoic acid] cannot be ordered by pIC50: over 7.00 for the first, over 7.00 for the second.

`COc1ccc(C[C@H](NC(=O)[C@@H](O)[C@H](N)Cc2ccccc2)C(=O)O)cc1` [Compound 18, (2S)-2-[[(2S,3R)-3-amino-2-hydroxy-4-phenyl-butanoyl]amino]-3-(4-methoxyphenyl)propanoic acid] and `N[C@H](Cc1ccccc1)[C@H](O)C(=O)N[C@@H](Cc1cccc(Br)c1)C(=O)O` [Compound 33] cannot be ordered by pIC50: at most 6.00 for the first, at most 6.00 for the second.

`N[C@H](Cc1ccccc1)[C@H](O)C(=O)N[C@H](C(=O)O)C1CCOCC1` [Compound 21, 2-[[(2S,3R)-3-amino-2-hydroxy-4-phenyl-butanoyl]amino]-2-tetrahydropyran-4-yl-acetic acid] and `N[C@H](Cc1ccccc1)[C@H](O)C(=O)NC(C(=O)O)C1CCNCC1` (some centres unmarked) [Compound 29] cannot be ordered by pIC50: at most 6.00 for the first, at most 6.00 for the second.

`N[C@H](Cc1ccccc1)[C@H](O)C(=O)NC(CC1CC(F)(F)C1)C(=O)O` (stereo partly drawn) [Compound 22, 2-[[(2S,3R)-3-amino-2-hydroxy-4-phenyl-butanoyl]amino]-3-(3,3-difluorocyclobutyl)propanoic acid] and `N[C@H](Cc1ccccc1)[C@H](O)C(=O)N[C@H](C(=O)O)C1CCC(F)(F)CC1` [Compound 34] cannot be ordered by pIC50: at most 6.00 for the first, 6.00 to 7.00 for the second.

First: CCC(c1ccccc1)C(NC(=O)[C@@H](O)[C@H](N)Cc1ccccc1)C(=O)O (stereo partly drawn) [Compound 24, 2-[[(2S,3R)-3-amino-2-hydroxy-4-phenyl-butanoyl]amino]-3-phenyl-pentanoic acid]
Second: N[C@H](Cc1ccccc1)[C@H](O)C(=O)N[C@H](C(=O)O)c1cccc(C(F)(F)F)c1 [Compound 36]
The pIC50 of the first is lower: at most 6.00 for the first, over 7.00 for the second.

`N[C@H](Cc1ccccc1)[C@H](O)C(=O)NC(C(=O)O)C1CCCCCC1` (some centres unmarked) [Compound 30] and `CC1(C)CC(C(NC(=O)[C@@H](O)[C@H](N)Cc2ccccc2)C(=O)O)CCO1` (some centres unmarked) [Compound 38] cannot be ordered by pIC50: 6.00 to 7.00 for the first, at most 6.00 for the second.

Going from `N[C@H](Cc1ccccc1)[C@H](O)C(=O)N[C@H](C(=O)O)c1cccc(OC(F)(F)F)c1` [Compound 31, (S)-2-((2S,3R)-3-amino-2-hydroxy-4-phenylbutanamido)-2-(3-(trifluoromethoxy)phenyl)acetic acid] to `NC(=O)C(NC(=O)[C@@H](O)[C@H](N)Cc1ccccc1)c1cccc(C(F)(F)F)c1` (some centres unmarked) [Compound 42], the pIC50 falls from over 7.00 to at most 6.00.

`CC(C)C[C@H](NC(=O)[C@@H](O)[C@H](N)Cc1ccc(Br)cc1)C(=O)O` [Compound 39] and `CC(C)C[C@H](NC(=O)[C@@H](O)[C@H](N)Cc1cccc(Br)c1)C(=O)O` [Compound 41] cannot be ordered by pIC50: at most 6.00 for the first, at most 6.00 for the second.

`CC(C)C[C@H](NC(=O)[C@@H](O)[C@H](N)Cc1ccccc1Br)C(=O)O` [Compound 40] was tested, and the pIC50 was at most 6.00.
